From patent US11407689B2, “Black urea enhanced efficiency controllable release fertilizer compositions” (priority 2018, dated 2022)

Tests used:
rice = test: Greenhouse Rice Test (rice grown in 5-gallon buckets, chlorophyll by SPAD 501 meter and rough rice yield); assay type: in vivo; conditions: for Average of Chlorophyll Measurements: relative chlorophyll in leaves, SPAD 501 meter
Protocol: This test was conducted to compare the use of Chip Urea and Black Chip Urea to the use of ordinary granular urea for growing rice. Chip Urea, Black Chip Urea, and plain urea fertilizers were tested at Applied Chemical Technology to fertilize rice grown in 5-gallon buckets in a greenhouse. The rice was fertilized following practices used to grow rice commercially in Arkansas. These practices include fertilizing with starter fertilizers and then dry seeding the rice. Nitrogen is then applied at flooding and again when the plants enter the reproductive phase. The fertilizer is flooded into the soil when the rice plants reach the 4-leaf stage by applying the granular fertilizer to the surface and then the applying the floodwater.
The rice for the tests was grown in a climate controlled greenhouse. […] Each fertilizer was tested with five replicates placed randomly on the table. The codes for labeling the tests are given in Example 5. The bucket placement for the tests is shown in Example 6.
Top soil was purchased from Shoals Dirt near Florence, Ala. This soil was mixed and sieved using a 3 MG screen. Soil samples were taken and sent for testing to the University of Arkansas. Each five gallon bucket was filled with 39 pounds of soil and placed on the greenhouse table with no space between the buckets.
Based on the soil test results, each bucket received pre-fertilizer that included urea, triple super phosphate (TSP), potassium chloride, Epsom salts (magnesium sulfate heptahydrate), and zinc sulfate.
The TSP fertilizer was applied first. This was done by weighing out 3.58 g of TSP for each bucket and then mixing the TSP thoroughly into the top 3-4 inches of soil.
Next, the remaining starter fertilizer was applied to each bucket by making a solution of the urea, potassium chloride, zinc sulfate, and Epson salts according to the values presented in Table A of Example 5. This solution was made so that the amount of the solution needed to supply the correct amount of each nutrient to each bucket was found in 200 mL of the solution. The 200 mL of solution was then evenly poured over the surface of the soil in each bucket.
The pre-fertilizer was applied. The rice was then planted by placing 10-15 seeds on the surface of the soil and using a pencil to push the rice seed ¾ inch beneath the soil surface. The hole was filled with sand. After planting, the soil moisture was monitored. If the buckets needed to be watered, then all of the buckets are watered with the same amount of water by volume. For all of the watering throughout the tests, rain water was used. […]
The fertilizers used were products made at ACT in the pilot plant tests. […] The amounts of each fertilizer were based on the nitrogen measured in the fertilizer by LECO so that every bucket received the same amount of nitrogen. […]

[1] = test system: arginine production in plants; conditions: cited from earlier work

NC(N)=O [Urea, urea]
Average of Chlorophyll Measurements (rice; July 19, 30 readings per bucket, five replicates): 46.8
Average of Chlorophyll Measurements (rice; September 21 (Friday before harvest)): 36.4
% Increase in Yield (rice; average yield per bucket versus plain urea): 0.0%
Average Rough Rice Yield per Bucket, Average Dry Weight at Harvest (rice; panicles dried at 50° C. for two days, same weight of N per bucket): 64.42 g

N#CN [acid cyanamide ion]
Effectiveness in stimulating arginine production relative to urea [1]: 20 times
